Experiment [1] has as its system Enterococcus faecalis ATCC 29212. Put plainly: MIC, broth microdilution (CLSI) versus planktonic bacteria. Format: cell-based. Particulars: ATCC29212, 16-20 h, mode of three independent experiments, read-out: MIC, Ef ATCC 29212. In general terms: Dilution methods test growth across graded concentrations, often in twofold steps.
Experiment [2] deals with Enterobacter cloacae NCTC 13406. The experiment is described as above. Conditions: NCTC13406; Enterobacter cloacae NCTC 13406; 16-20 h; mode of three independent experiments; read-out: MIC, Ecl NCTC 13406. Type of experiment: cell-based.
For experiment [3], the system named is Escherichia coli ATCC 25922. The experiment is described as above. Type of experiment: cell-based. Particulars: ATCC25922; Escherichia coli ATCC 25922; 16-20 h; mode of three independent experiments; read-out: MIC, Ec ATCC 25922.
The subject of experiment [4] is Staphylococcus aureus ATCC 29213. The experiment is described as above. Format: cell-based. Conditions: ATCC29213; Staphylococcus aureus ATCC 29213; 16-20 h; mode of three independent experiments; read-out: MIC, Sa ATCC 29213.
Experiment [5] concerns Haemophilus influenzae ATCC 49247. The description is as above. Type of experiment: cell-based. Conditions: ATCC49247; Haemophilus influenzae ATCC 49247; 16-20 h; mode of three independent experiments; read-out: MIC, Hi ATCC 49247.
Experiment [6] deals with Acinetobacter baumannii NCTC 13420. Described as above. Conditions: NCTC13420; Acinetobacter baumannii NCTC 13420; 16-20 h; mode of three independent experiments; read-out: MIC, Ab NCTC 13420. Type of experiment: cell-based.
Experiment [7] deals with Pseudomonas aeruginosa ATCC 27853. The description is as above. Type of experiment: cell-based. Particulars: ATCC27853; Pseudomonas aeruginosa ATCC 27853; 16-20 h; mode of three independent experiments; read-out: MIC, Pa ATCC 27853.
The subject of experiment [8] is Acinetobacter baumannii ATCC 19606. The description is as above. Format: cell-based. Conditions: ATCC19606; Acinetobacter baumannii ATCC 19606; 16-20 h; mode of three independent experiments; read-out: MIC, Ab ATCC 19606.
Experiment [9] deals with human hepatic cell line (HepG2 ATCC HB-8065). The experiment in a line: Human cell viability assay (CellTiter-Glo). Particulars: Homo sapiens, HepG2, 24 h, read-out: IC50 (μg/mL) HepG2.
The subject of experiment [10] is Enterococcus faecium ATCC 19434. The experiment in a line: MIC, broth microdilution (CLSI) versus planktonic bacteria. Format: cell-based. Conditions: ATCC19434, 16-20 h, mode of three independent experiments, read-out: MIC, Efm ATCC 19434.
The test system of a further experiment is E. coli MG1655. Described as above. Format: cell-based, Escherichia coli. Particulars: Escherichia coli, MG1655, read-out: MIC, Ec MG1655 WT.
The next experiment has as its system E. coli MG1655 S83L. Type of experiment: cell-based, Escherichia coli. Particulars: compared to the isogenic parent strain E. coli MG1655; S83L mutation on DNA gyrase subunit GyrA.
Another experiment deals with E. coli MG1655 D87G. Format: cell-based, Escherichia coli. Particulars: compared to the isogenic parent strain E. coli MG1655; D87G mutation on DNA gyrase subunit GyrA.
Experiment [11] deals with fluoroquinolone-resistant Enterococcus faecium ATCC 700221. Put plainly: MIC, broth microdilution (CLSI) versus planktonic bacteria. Particulars: ATCC700221, 16-20 h, mode of three independent experiments, read-out: MIC, Efm ATCC 700221. Format: cell-based.
Experiment [12] deals with Streptococcus pneumoniae ATCC 49619. The experiment is described as above. Format: cell-based. Particulars: ATCC49619; Streptococcus pneumoniae ATCC 49619; 16-20 h; mode of three independent experiments; read-out: MIC, Sp ATCC 49619.
A further experiment relates to E. coli ATCC BAA-2452. Described as above. Type of experiment: cell-based. Conditions: Escherichia coli ATCC BAA-2452; 16-20 h; mode of three independent experiments; read-out: MIC, Ec ATCC BAA 2452.
In another experiment the test system is E. coli NCTC 13476. The description is as above. Format: cell-based. Particulars: NCTC13476; Escherichia coli NCTC 13476; 16-20 h; mode of three independent experiments; read-out: MIC, Ec NCTC 13476.

These results are taken from US10487093B2, “Heterocyclic compounds, in particular 2-oxo-4,4,5,5,6,6,7,7-octahydrobenzoxazole derivatives, and their use as antibacterial compounds” (priority 2016, dated 2019).

In brackets after ≈: the same amount, converted by molar mass.

Regarding `NCCCOc1ccc2ccc(=O)n(CCN[C@@H]3CC[C@@H]4[C@@H](C3)OC(=O)N4c3ccc4c(n3)NC(=O)CO4)c2c1` [Compound 3, 1-(2-{[(3aR,6R,7aR)-2-oxo-3-{3-oxo-2H,3H,4H-pyrido[3,2-b][1,4]oxazin-6-yl}-octahydro-1,3-benzoxazol-6-yl]amino}ethyl)-7-(3-aminopropoxy)-1,2-dihydroquinolin-2-one], the MIC in [1] was less than 1 µg/mL; in experiment [2] it was 10 to 100 µg/mL (≈ 18.2 to 182 µM); in experiment [3] it was 1 to 10 µg/mL (≈ 1.82 to 18.2 µM); in [4], less than 1 µg/mL; in [5], 10 to 100 µg/mL (≈ 18.2 to 182 µM); in experiment [6], 10 to 100 µg/mL (≈ 18.2 to 182 µM). The MIC was 1 to 10 µg/mL (≈ 1.82 to 18.2 µM) in [7] and more than 100 µg/mL in experiment [8]. Further, in experiment [9], the IC50 is more than 100 µg/mL.

Regarding `COc1ccc2ccc(=O)n(CCN[C@H]3CC[C@H]4[C@H](C3)OC(=O)N4c3ccc4c(n3)NC(=O)CO4)c2n1` [Compound 29, 1-(2-{[(3aS,6S,7aS)-2-oxo-3-{3-oxo-2H,3H,4H-pyrido[3,2-b][1,4]oxazin-6-yl}-octahydro-1,3-benzoxazol-6-yl]amino}ethyl)-7-methoxy-1,2-dihydro-1,8-naphthyridin-2-one], the MIC (in experiment [1]; in experiment [2]; in [3]; in experiment [10]; with E. coli MG1655; in experiment [4]) was less than 1 µg/mL each time. The MIC in experiment [5], in [6], in experiment [7], in [8], in [11] and in experiment [12] was less than 1 µg/mL each time. For the same molecule, the MIC with E. coli ATCC BAA-2452 was less than 1 µg/mL. Moreover, the “Fold increase in MIC, E. coli MG1655 S83L” value with E. coli MG1655 S83L stood at 1 fold. Besides, the “Fold increase in MIC, E. coli MG1655 D87G” value in the experiment with E. coli MG1655 D87G amounted to 2 fold. For the same molecule, in experiment [9], the IC50 was 10 to 100 µg/mL (≈ 19.7 to 197 µM).

As to `N#Cc1ccc2ccc(=O)n(CCCN[C@H]3CC[C@H]4[C@H](C3)OC(=O)N4c3ccc4c(n3)NC(=O)CO4)c2c1` [Compound 60, 1-(3-{[(3aS,6S,7aS)-2-oxo-3-{3-oxo-2H,3H,4H-pyrido[3,2-b][1,4]oxazin-6-yl}-octahydro-1,3-benzoxazol-6-yl]amino}propyl)-2-oxo-1,2-dihydroquinoline-7-carbonitrile], the MIC (in experiment [1]; in experiment [2]; in [3]; in the experiment with E. coli MG1655; with E. coli NCTC 13476; in experiment [4]) was less than 1 µg/mL in each case. Moreover, the MIC (in experiment [5]; in [6]; in [7]; in [8]; in experiment [12]; in the experiment with E. coli ATCC BAA-2452) was less than 1 µg/mL each time. Besides, the “Fold increase in MIC, E. coli MG1655 S83L” value with E. coli MG1655 S83L was found to be 4 fold. Further, the “Fold increase in MIC, E. coli MG1655 D87G” value in the experiment with E. coli MG1655 D87G was determined as 2 fold. The IC50 in experiment [9] is 10 to 100 µg/mL (≈ 19.4 to 194 µM).

With `COc1cnc2ccc(=O)n(CCN[C@H]3CC[C@H]4[C@H](C3)OC(=O)N4c3ccc4c(n3)NC(=O)CO4)c2n1` [Compound 63, (3aS,6S,7aS)-6-[(2-{3-methoxy-6-oxo-5H,6H-pyrido[2,3-b]pyrazin-5-yl}ethyl)amino]-3-{3-oxo-2H,3H,4H-pyrido[3,2-b][1,4]oxazin-6-yl}-octahydro-1,3-benzoxazol-2-one], the MIC (in [1]; in experiment [2]; in experiment [3]; with E. coli MG1655; in the experiment on E. coli NCTC 13476; in [4]) was less than 1 µg/mL throughout. In addition, the MIC (in experiment [5]; in [6]; in experiment [7]; in [8]; in experiment [12]; with E. coli ATCC BAA-2452) was less than 1 µg/mL throughout. Further, in the experiment with E. coli MG1655 S83L, the “Fold increase in MIC, E. coli MG1655 S83L” value is listed as 1 fold. The “Fold increase in MIC, E. coli MG1655 D87G” value with E. coli MG1655 D87G was 1 fold. Also, the IC50 in experiment [9] is more than 100 µg/mL.

Take `N#Cc1cnc2ccc(=O)n(CCN[C@H]3CC[C@H]4[C@H](C3)OC(=O)N4c3ccc4c(n3)NC(=O)CS4)c2c1` [Compound 77, 5-(2-{[(3aS,6S,7aS)-2-oxo-3-{3-oxo-2H,3H,4H-pyrido[3,2-b][1,4]thiazin-6-yl}-octahydro-1,3-benzoxazol-6-yl]amino}ethyl)-6-oxo-5,6-dihydro-1,5-naphthyridine-3-carbonitrile]: the MIC (in [2]; in experiment [3]; in experiment [10]; with E. coli MG1655; with E. coli NCTC 13476; in [4]) was less than 1 µg/mL each time. Further, the MIC in [5] is less than 1 µg/mL; in experiment [6] it was less than 1 µg/mL; in experiment [7], 1 to 10 µg/mL (≈ 1.93 to 19.3 µM); in experiment [8] it was less than 1 µg/mL; in experiment [12], less than 1 µg/mL; in the experiment on E. coli ATCC BAA-2452, less than 1 µg/mL. The “Fold increase in MIC, E. coli MG1655 S83L” value in the experiment on E. coli MG1655 S83L was found to be 1 fold. The “Fold increase in MIC, E. coli MG1655 D87G” value with E. coli MG1655 D87G is on record as 1 fold. Besides, the IC50 in experiment [9] is more than 100 µg/mL.

Consider `COc1cnc2ccc(=O)n(CCN[C@@H]3CC[C@@H]4[C@@H](C3)OC(=O)N4c3ccc4c(n3)NC(=O)CO4)c2n1` [Compound 87, (3aR,6R,7aR)-6-[(2-{3-methoxy-6-oxo-5H,6H-pyrido[2,3-b]pyrazin-5-yl}ethyl)amino]-3-{3-oxo-2H,3H,4H-pyrido[3,2-b][1,4]oxazin-6-yl}-octahydro-1,3-benzoxazol-2-one], for which the MIC is less than 1 µg/mL in [1]; less than 1 µg/mL in experiment [2]; less than 1 µg/mL in experiment [3]; 1 to 10 µg/mL (≈ 1.97 to 19.7 µM) in [10]; less than 1 µg/mL in the experiment with E. coli MG1655; less than 1 µg/mL in the experiment with E. coli NCTC 13476. The MIC in experiment [4], in experiment [5], in experiment [6], in experiment [7], in experiment [8] and in experiment [12] was less than 1 µg/mL each time. Further, the MIC with E. coli ATCC BAA-2452 is less than 1 µg/mL. Further, the “Fold increase in MIC, E. coli MG1655 S83L” value with E. coli MG1655 S83L is 2 fold. Further, in the experiment with E. coli MG1655 D87G, the “Fold increase in MIC, E. coli MG1655 D87G” value is recorded as 2 fold. Besides, the IC50 in [9] was in the range of 10 to 100 µg/mL (≈ 19.7 to 197 µM).

Consider `O=C1COc2ccc(N3C(=O)O[C@H]4C[C@@H](NCCn5c(=O)ccc6nccnc65)CC[C@@H]43)nc2N1` [Compound 100, (3aS,6S,7aS)-3-{3-oxo-2H,3H,4H-pyrido[3,2-b][1,4]oxazin-6-yl}-6-[(2-{6-oxo-5H,6H-pyrido[2,3-b]pyrazin-5-yl}ethyl)amino]-octahydro-1,3-benzoxazol-2-one], for which the MIC is 1 to 10 µg/mL (≈ 2.09 to 20.9 µM) in experiment [2]; less than 1 µg/mL in experiment [3]; less than 1 µg/mL with E. coli MG1655; 1 to 10 µg/mL (≈ 2.09 to 20.9 µM) in the experiment with E. coli NCTC 13476; less than 1 µg/mL in [4]; less than 1 µg/mL in experiment [5]. Besides, the MIC in [6] was less than 1 µg/mL; in [7], 10 to 100 µg/mL (≈ 20.9 to 209 µM); in [8], 1 to 10 µg/mL (≈ 2.09 to 20.9 µM); in [12] it was less than 1 µg/mL; in the experiment with E. coli ATCC BAA-2452, 1 to 10 µg/mL (≈ 2.09 to 20.9 µM). Moreover, the “Fold increase in MIC, E. coli MG1655 S83L” value in the experiment with E. coli MG1655 S83L is reported as 1 fold. Moreover, the “Fold increase in MIC, E. coli MG1655 D87G” value in the experiment on E. coli MG1655 D87G stood at 1 fold. Besides, the IC50 in [9] was more than 100 µg/mL.
